From ChEMBL document CHEMBL5247631, “Ferroptosis-related small-molecule compounds in cancer therapy: Strategies and applications” (Eur J Med Chem, 2022)

Key:
[1] = tested on: MCF7; test: Anticancer activity against human MCF7 cells assessed as inhibition of cell viability incubated for 48 hrs by CCK-8 assay; type: functional, cell-based; conditions: MCF7, 48 h
[2] = tested on: MDA-MB-231; test: Anticancer activity against human MDA-MB-231 cells assessed as inhibition of cell viability incubated for 48 hrs by CCK-8 assay; type: functional, cell-based; conditions: MDA-MB-231, 48 h
[3] = Induction of ferroptosis in human U-87 MG cells assessed as decrease in GPX4 protein expression incubated for 48 hrs by Western blot analysis; type: functional, cell-based, U-87MG ATCC
[4] = tested on: Glioblastoma cell line; test: Induction of ferroptosis in human primary glioblastoma cells assessed as decrease in GPX4 protein expression incubated for 48 hrs by Western blot analysis; type: functional, cell-based
[5] = tested on: DLD-1; test: Antiproliferative activity against human DLD-1 cells assessed as reduction in cell viability incubated for 48 hrs by MTT assay; type: functional, cell-based; conditions: DLD-1, 48 h
[6] = tested on: HCT-116; test: Antiproliferative activity against human HCT-116 cells assessed as reduction in cell viability incubated for 48 hrs by MTT assay; type: functional, cell-based; conditions: HCT-116, 48 h
[7] = Induction of ferroptosis in human BJeLR cells assessed as inhibition of (cystine-glutamate antiporter) system Xc- mediated cystine transport; type: functional, cell-based; conditions: bjelr cell
[8] = tested on: HEp-2; test: Anticancer activity against human HEp-2 cells assessed as reduction in cell viability incubated for 72 hrs by MTT assay; type: functional, cell-based; conditions: HEp-2, 72 h
[9] = tested on: THP-1; test: Anticancer activity against human THP-1 cells assessed as reduction in cell viability incubated for 72 hrs by MTT assay; type: functional, cell-based; conditions: THP-1, 72 h
[10] = tested on: CNE; test: Anticancer activity against human CNE cells assessed as reduction in cell viability incubated for 72 hrs by MTT assay; type: functional, cell-based
[11] = Anticancer activity against human U87 cells assessed as reduction in cell viability incubated for 72 hrs by MTT assay; type: functional, cell-based, U-87MG ATCC; conditions: U-87 MG
[12] = tested on: A 172; test: Anticancer activity against human A-172 cells assessed as reduction in cell viability incubated for 72 hrs by MTT assay; type: functional, cell-based; conditions: A 172, 72 h
[13] = tested on: HL-60; test: Anticancer activity against human HL-60 cells assessed as reduction in cell viability incubated for 72 hrs by MTT assay; type: functional, cell-based; conditions: HL-60, 72 h
[14] = tested on: MEF; test: Antitumor activity against mouse MEF cells xenografted in nude mouse assessed as reduction in tumor weight at 40 mg/kg, po twice daily for 7 days relative to control; type: functional; design: scale not given: the % may be the effect or the level left; conditions: time 7 day
[15] = tested on: ES-2; test: Anticancer activity against human ES2 cells assessed as reduction in cell viability incubated for 72 hrs by Alamar Blue viability assay; type: functional, cell-based; conditions: ES-2, 72 h
[16] = Anticancer activity against human PHMLER expressing CD24low phenotype cells assessed as reduction in cell viability incubated for 72 hrs; type: functional, cell-based
[17] = tested on: HT-1080; test: Induction of ferroptosis in human HT-1080 cells assessed as inhibition of (cystine-glutamate antiporter) system Xc- mediated cystine transport; type: functional, cell-based
[18] = tested on: HT-1080; test: Antitumor activity against human HT-1080 cells assessed as inhibition of cell viability; type: functional, cell-based
[19] = tested on: Huh-7; test: Antitumor activity against human Huh-7 cells assessed as inhibition of cell viability; type: functional, cell-based
[20] = tested on: Hep 3B2; test: Antitumor activity against human Hep3B cells assessed as inhibition of cell viability; type: functional, cell-based
[21] = tested on: HepG2; test: Antitumor activity against human HepG2 cells assessed as inhibition of cell viability; type: functional, cell-based
[22] = tested on: Calu-1; test: Induction of ferroptosis in human Calu-1 cells assessed as inhibition of (cystine-glutamate antiporter) system Xc- mediated cystine transport; type: functional, cell-based
[23] = tested on: SW480; test: Anticancer activity against human SW480 cells assessed as reduction in cell viability incubated for 24 hrs in presence of 10% FBS by CCK8 assay; type: functional, cell-based; conditions: SW480, 24 h
[24] = tested on: AGS; test: Anticancer activity against human AGS cells assessed as inhibition of cell viability incubated for 24 hrs by CCK-8 assay; type: functional, cell-based
[25] = tested on: NCI-N87; test: Anticancer activity against human NCI-N87 cells assessed as inhibition of cell viability incubated for 24 hrs by CCK-8 assay; type: functional, cell-based; conditions: NCI-N87, 24 h

COc1cc(/C=C/C(=O)CC(=O)/C=C/c2ccc(O)c(OC)c2)ccc1O [CURCUMIN]
IC50 [1]: 41.9 µM
IC50 [2]: 53.5 µM

COc1ccc(/C=C/C(=O)C(CC2CCC2)C(=O)/C=C/c2ccc(OC)c(OC)c2)cc1OC [ROSOLUTAMIDE]
IC50 [3]: < 5 µM
IC50 [4]: 2 µM

COc1ccc2oc(=N)c(C(N)=S)cc2c1
IC50 [5]: 50.2 µM
IC50 [6]: 44.5 µM

CCCC[S@@](=N)(=O)CC[C@@H](N)C(=O)O
IC50 [7]: < 10 µM

C[C@H]1[C@@H](O)O[C@@H]2O[C@@]3(C)CC[C@H]4[C@H](C)CC[C@@H]1[C@@]24OO3 [ARTENIMOL]
IC50 [8]: 18.1 µM
IC50 [9]: 9.05 µM
IC50 [10]: 18.4 µM
IC50 [11]: 50 µM
IC50 [12]: 66 µM
IC50 [13]: 6.82 µM

C[C@H](CN1CCCC1)C(=O)c1ccc(C(F)(F)F)cc1 [LANPERISONE]
Activity [14]: 37%

CC1CC[C@@]23C[C@H](O)C(=O)[C@@]2(O)[C@]1(C)[C@H](OC(=O)CCl)C[C@@H](C1=CCn2c(=O)n(-c4ccccc4)c(=O)n2C1)[C@@H]3C (some centres not stated)
IC50 [15]: 1.6 µM

C#CCN[C@@H]1C=C[C@]2(O[C@H]([C@@H](CC)C(=O)[C@@H](C)[C@@H](O)[C@H](C)[C@@H]3O[C@@H]([C@@H](CC)C(=O)O)CC[C@@H]3C)[C@@H](C)C[C@H]2C)O[C@@]12CC[C@@](C)([C@H]1CC[C@](O)(CC)[C@H](C)O1)O2
IC50 [16]: 0.1 µM

C#Cc1nc(C2=C(C)[C@H](O)CC2)cs1
IC50 [17]: 76 µM

CNC(=O)c1cc(Oc2ccc(NC(=O)Nc3ccc(Cl)c(C(F)(F)F)c3)cc2)ccn1 [SORAFENIB]
IC50 [18]: < 10 µM
IC50 [19]: < 10 µM
IC50 [20]: < 10 µM
IC50 [21]: < 10 µM

O=C(O)c1cc(/N=N/c2ccc(S(=O)(=O)Nc3ccccn3)cc2)ccc1O [SULFASALAZINE]
IC50 [17]: 450 µM
IC50 [22]: 460 µM

CCC(C)/C=C(\C)[C@H]1C(C)=C[C@@]2(C)C[C@@H](C)CC[C@@H]2[C@H]1C(=O)C1=C/C(=C/c2ccc(O)cc2)NC1=O (some centres not stated) [TALAROCONVOLUTIN A]
IC50 [23]: 8.15 µM

C[C@@H]1CC[C@@]2(OC1)O[C@H]1C[C@H]3[C@@H]4CC=C5C[C@@H](O)C[C@@H](O[C@H]6O[C@H](C)[C@H](O)[C@H](O)[C@H]6O[C@@H]6O[C@@H](C)[C@H](O)[C@@H](O)[C@H]6O)[C@]5(C)[C@H]4CC[C@]3(C)[C@H]1[C@@H]2C
IC50 [24]: 10.3 µM
IC50 [25]: 21.3 µM

CC(C)Oc1ccc(CN2CCNCC2)cc1-n1c(CN2CCN(C(=O)COc3ccc(Cl)cc3)CC2)nc2ccccc2c1=O
IC50 [7]: 0.9 µM
